Laboratory results as given in US20080176913A1, “TRANSDERMAL COMPOSITIONS OF PRAMIPEXOLE HAVING ENHANCED PERMEATION PROPERTIES” (priority 2006, published 2008).
Where a name gives a salt, the structure may show the parent alone. Read-outs that look alike come from different tables or passages of the source.

Legend:
[1] = oral administration, daily dose of about 1.5 to 4.5 mg; cited from earlier work

CCCN[C@H]1CCc2nc(N)sc2C1 [pramipexole, (S)-2-amino-4,5,6,7-tetrahydro-6-(propylamino)benzothiazole dihydrochloride monohydrate]
bioavailability [1]: 90%
ionization (at pH of about 8.0): about 97%
ionization (at pH of about 10.5): about 33%
